Assay results taken from patent publication US6737383B1, “Herbicidal oxadiazolidines” (priority 1999, dated 2004).

Tests used:
[1] = tested on: bedstraw; assay: Test B pre/postemergence bedstraw; type: in vivo, Galium aparine; conditions: scale of 0 to 10 where 0 is no effect and 10 is complete control
How it was run: (§1)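 Herbicidal effect was estimated by eye on a ten-point control scale after plants spent twelve to sixteen days in a greenhouse following soil or foliar treatment. Foliar sprays targeted plants at one to four leaves; all doses were formulated in a non-phytotoxic solvent with surfactant.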

[2] = tested on: pigweed; assay: Test B pre/postemergence pigweed; type: in vivo, Amaranthus retroflexus
How it was run: as §1

[3] = tested on: wild oat; assay: Test B pre/postemergence wild oat; type: in vivo, Avena fatua
How it was run: as §1

[4] = tested on: rape; assay: Test B pre/postemergence rape; type: in vivo, Brassica napus
How it was run: as §1

[5] = tested on: morningglory; assay: Test B pre/postemergence morningglory; type: in vivo, Ipomoea hederacea
How it was run: as §1

[6] = tested on: corn; assay: Test B pre/postemergence corn; type: in vivo, Zea mays
How it was run: as §1

[7] = tested on: sugar beet; assay: Test B pre/postemergence sugar beet; type: in vivo, Beta vulgaris
How it was run: as §1

[8] = tested on: rice; assay: Test B flood test rice; type: in vivo, Oryza sativa
How it was run: (§2)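 Read-out is a visual response score from 0 (no effect) to 10 (complete control), assigned by comparison with untreated controls. Treatment was applied at the 2-leaf stage, and plants stayed in the greenhouse for twelve to sixteen days before scoring.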

[9] = tested on: wheat; assay: Test B pre/postemergence wheat; type: in vivo, Triticum aestivum
How it was run: as §1

[10] = tested on: blackgrass; assay: Test B pre/postemergence blackgrass; type: in vivo, Alopecurus myosuroides
How it was run: as §1

[11] = tested on: giant foxtail; assay: Test B pre/postemergence giant foxtail; type: in vivo, Setaria faberii
How it was run: as §1

[12] = tested on: bamyardgrass; assay: Test B flood test barnyardgrass; type: in vivo, Echinochloa crus-galli
How it was run: as §2

[13] = tested on: crabgrass; assay: Test B pre/postemergence crabgrass; type: in vivo, Digitaria sanguinalis
How it was run: as §1

[14] = tested on: cocklebur; assay: Test B pre/postemergence cocklebur; type: in vivo, Xanthium strumarium
How it was run: as §1

[15] = tested on: surinam grass; assay: Test B pre/postemergence surinam grass; type: in vivo, Brachiaria decumbens
How it was run: as §1

[16] = tested on: purple nutsedge; assay: Test B pre/postemergence purple nutsedge; type: in vivo, Cyperus rotundus
How it was run: as §1

[17] = Postemergence, Rate 250 g/ha, scale 0 to 10, 0 is no effect, 10 is complete control
[18] = Postemergence, Rate 500 g/ha, scale of 0 to 10 where 0 is no effect and 10 is complete control
[19] = Preemergence, Rate 62 g/ha, scale 0 to 10 (0 no effect, 10 complete control)
[20] = Preemergence, Rate 125 g/ha, scale of 0 to 10 where 0 is no effect and 10 is complete control
[21] = Preemergence, Rate 250 g/ha, scale of 0 to 10 where 0 is no effect and 10 is complete control
[22] = Preemergence, Rate 500 g/ha, scale of 0 to 10 where 0 is no effect and 10 is complete control
[23] = Rate 62 g/ha, Postemergence, scale of 0 to 10 where 0 is no effect and 10 is complete control
[24] = Postemergence, Rate 125 g/ha, scale 0 to 10, 0 is no effect, 10 is complete control
[25] = Rate 62 g/ha, flood test species, Pre-emergence, visual evaluation after twelve to sixteen days
[26] = Rate 125 g/ha, under heading Pre-emergence, flood test species, visual evaluation after twelve to sixteen days
[27] = Rate 250 g/ha, Pre-emergence, flood-test species, scale 0 to 10, 0 is no effect, 10 is complete control
[28] = Rate 500 g/ha, Pre-emergence, flood test species, scale 0 to 10 (0 no effect, 10 complete control)

CC(C)N(C(=O)n1oc(=O)n(C(CF)CF)c1=O)c1ccc(F)cc1 [Compound 390]
Bedstraw plant response rating ([1]; Postemergence, Rate 500 g/ha): 7
Plant response rating, Bedstraw ([1]; Preemergence, Rate 125 g/ha): 0
Plant response rating, Redroot pigweed [2, 17]: 9
Redroot pigweed plant response rating [2, 18]: 9
Plant response rating, Redroot pigweed [2, 19]: 8
Plant response rating, Redroot pigweed [2, 20]: 9
Redroot pigweed plant response rating [2, 21]: 10
Redroot pigweed plant response rating [2, 22]: 10
Redroot pigweed plant response rating [2, 23]: 2
Plant response rating, Wild oats [3, 17]: 7
Wild oats plant response rating [3, 18]: 9
Plant response rating, Wild oats [3, 19]: 3
Plant response rating, Wild oats [3, 20]: 6
Wild oats plant response rating [3, 21]: 10
Wild oats plant response rating [3, 22]: 10
Wild oats plant response rating [3, 23]: 0
Plant response rating, Rape [4, 17]: 10
Rape plant response rating [4, 18]: 10
Plant response rating, Rape [4, 19]: 0
Plant response rating, Rape [4, 20]: 2
Rape plant response rating [4, 21]: 8
Rape plant response rating [4, 22]: 8
Rape plant response rating [4, 23]: 7
Plant response rating, Morningglory [5, 17]: 7
Morningglory plant response rating [5, 18]: 9
Plant response rating, Morningglory [5, 19]: 0
Plant response rating, Morningglory [5, 20]: 3
Morningglory plant response rating [5, 21]: 6
Morningglory plant response rating [5, 22]: 7
Morningglory plant response rating [5, 23]: 2
Plant response rating, Corn [6, 24]: 0
Plant response rating, Corn [6, 17]: 0
Corn plant response rating [6, 18]: 0
Plant response rating, Corn [6, 19]: 0
Plant response rating, Corn [6, 20]: 3
Corn plant response rating [6, 22]: 7
Corn plant response rating [6, 23]: 0
Plant response rating, Sugarbeets [7, 17]: 5
Sugarbeets plant response rating [7, 18]: 7
Plant response rating, Sugarbeets [7, 19]: 5
Plant response rating, Sugarbeets [7, 20]: 7
Sugarbeets plant response rating [7, 21]: 8
Sugarbeets plant response rating [7, 22]: 8
Sugarbeets plant response rating [7, 23]: 0
Plant response rating, Rice (0 to 10 scale, 0 is no effect, 10 is complete control) [8, 25]: 1
Rice plant response rating (0 to 10 scale, 0 is no effect, 10 is complete control) [8, 26]: 1
Rice plant response rating [8, 27]: 1
Rice plant response rating [8, 28]: 4
Plant response rating, Wheat [9, 17]: 3
Wheat plant response rating [9, 18]: 7
Plant response rating, Wheat [9, 19]: 0
Plant response rating, Wheat [9, 20]: 4
Wheat plant response rating [9, 21]: 8
Wheat plant response rating [9, 22]: 9
Wheat plant response rating [9, 23]: 0
Plant response rating, Blackgrass [10, 17]: 9
Blackgrass plant response rating [10, 18]: 9
Plant response rating, Blackgrass [10, 19]: 6
Plant response rating, Blackgrass [10, 20]: 9
Blackgrass plant response rating [10, 21]: 9
Blackgrass plant response rating [10, 22]: 10
Blackgrass plant response rating [10, 23]: 8
Plant response rating, Giant foxtail [11, 24]: 9
Plant response rating, Giant foxtail [11, 17]: 9
Giant foxtail plant response rating [11, 18]: 10
Plant response rating, Giant foxtail [11, 19]: 10
Plant response rating, Giant foxtail [11, 20]: 10
Giant foxtail plant response rating [11, 21]: 10
Giant foxtail plant response rating [11, 22]: 10
Giant foxtail plant response rating [11, 23]: 9
Plant response rating, Barnyardgrass (0 to 10 scale, 0 is no effect, 10 is complete control) [12, 25]: 2
Barnyardgrass plant response rating (0 to 10 scale, 0 is no effect, 10 is complete control) [12, 26]: 5
Barnyardgrass plant response rating [12, 27]: 4
Barnyardgrass plant response rating [12, 28]: 9
Plant response rating, Crabgrass [13, 24]: 7
Plant response rating, Crabgrass [13, 17]: 7
Crabgrass plant response rating [13, 18]: 9
Plant response rating, Crabgrass [13, 19]: 8
Plant response rating, Crabgrass [13, 20]: 9
Crabgrass plant response rating [13, 21]: 10
Crabgrass plant response rating [13, 22]: 10
Crabgrass plant response rating [13, 23]: 2
Plant response rating, Cocklebur [14, 24]: 0
Plant response rating, Cocklebur [14, 17]: 3
Cocklebur plant response rating [14, 18]: 7
Plant response rating, Cocklebur [14, 19]: 0
Plant response rating, Cocklebur [14, 20]: 0
Cocklebur plant response rating [14, 21]: 2
Cocklebur plant response rating [14, 23]: 0
Plant response rating, B. signalgrass [15, 24]: 5
Plant response rating, B. signalgrass [15, 17]: 5
B. signalgrass plant response rating [15, 18]: 8
Plant response rating, B. signalgrass [15, 19]: 1
Plant response rating, B. signalgrass [15, 20]: 5
B. signalgrass plant response rating [15, 21]: 9
B. signalgrass plant response rating [15, 22]: 10
B. signalgrass plant response rating [15, 23]: 2
Plant response rating, Nutsedge [16, 17]: 3
Plant response rating, Nutsedge [16, 19]: 0
Plant response rating, Nutsedge [16, 20]: 0
Nutsedge plant response rating [16, 21]: 0
Nutsedge plant response rating [16, 22]: 2
Nutsedge plant response rating [16, 23]: 0
